For assay [1], the system named is male stress-derived axillary odor. As to the kind of experiment: Cross-adaptation of male stress-derived axillary odor (odor panel, magnitude estimation of perceived intensity). It is filed as in vivo, human. The settings on record: for Magnitude of Reduction of Intensity of Male Stress-Derived Odor (MSDO), Males: male stress-derived odor perceived by men; for Magnitude of Reduction of Intensity of Male Stress-Derived Odor (MSDO), Females: male stress-derived odor perceived by women. The text has this:
(§1) The procedure relies upon an individual constantly sniffing an adapting agent, such as a fragrance, and occasionally a test odorant. Perceived intensity of the test odorant is obtained by using psychophysical, magnitude-estimation procedures. These perceived intensities are obtained every 30 seconds over the test period, and are then compared with baseline perceived intensities obtained before the individual began sniffing the adapting agent. Throughout the testing we observe adaptation to the adapting agent. Results during trials with an inserted test odorant, such as the axillary odor used here, are believed to be reasonably predictive. If the perceived intensity of the test odorant decreases during the test, then the adapting agent cross-adapts the test odorant and becomes a cross-adapting agent. If the cross-adapting agent is itself not offensive, then the cross-adapting agent becomes a candidate for use in formulations in consumer products to ameliorate malodors, such as axillary odor or fecal/urine odors, and odors related to the female menstrual cycle.
(§2) Collection of secretions: Apocrine secretions obtained under stressed conditions provided the axillary odor that was used as the test odorant to evaluate the effectiveness of various adapting agents. Secretions were obtained from males (ages 20 to 60 years) and females (ages 20 to 40 years) in good health. […] Volunteers prepared their axillae for collection of apocrine secretions by refraining from deodorant use for 3 days and shaving their axillae the morning of the collection day.
(§3) Volunteers were rested in a supine position. The axillary regions were washed with isopropanol-soaked pads and injected intradermally with 1:10,000 adrenalin (in physiologic saline). This injection stimulated the secretion of apocrine gland secretions, which were collected in 10 μl pipettes, passed into 0.25 ml Eppendorf tubes, and stored on ice (or frozen for longer storage). The amount of secretion collected varied greatly with the individual subject (≦10 μl). The apocrine secretions from each volunteer were combined by consecutively washing each Eppendorf tube with 2×300 μl of doubly distilled water. This aqueous-apocrine fluid was transferred to a 5 ml round-bottomed flask for hydrolysis. X-N. Zeng, J. J. Leyden, J. G. Brand, A. I. Spielman, K. J. McGinley, G. Preti, An Investigation of Human Apocrine Gland Secretion for Axillary Odor Precursors, 18 J. Chem. Ecol. 1039-1055 (1992); X-N. Zeng, J. J. Leyden, A. I. Spielman and G. Preti Analysis of the characteristic human female axillary odors: Qualitative comparison to males. 22 J. Chem. Ecol. 237-257 (1996).
(§4) Production of odor: To produce quantities of stress-derived axillary odor for testing purposes, we hydrolyzed the apocrine secretion. The aqueous solution was refluxed for 20 min with 0.5 ml, 5% aqueous sodium hydroxide under a stream of nitrogen. The mixture was allowed to cool to room temperature, and then it was cooled in ice prior to being acidified with 6 N HCl to pH 2. The resulting axillary odor developed in the reaction mixture upon acidification was used as the test odorant. The axillary odors generated by this in vitro technique are analogous to the malodors produced by stressed individuals.
Sixteen (16) individuals (8 of each gender) served on an odor panel. Subjects ranged in age from 22 to 55 years (mean 32.7±10.6 s.d.), were not pregnant (by verbal report), and were all non-smokers. All panel members were screened for adequate use of magnitude estimation (some people have difficulties maintaining a ratio scale, i.e., when an odorant is half as strong as the previous, these people fail to provide a number that is half the previous estimate) and further trained in its use during 2-3 training sessions. All 16 subjects were tested with samples of male malodor compared to each of the potential cross-adapting agents. […]

For assay [2], the system named is female stress-derived axillary odor. Briefly: Cross-adaptation of female stress-derived axillary odor (odor panel, magnitude estimation of perceived intensity). Format: in vivo, human. Conditions: for Magnitude of Reduction of Intensity of Female Stress-Derived Odor (FSDO), Males: female stress-derived odor perceived by men; for Magnitude of Reduction of Intensity of Female Stress-Derived Odor (FSDO), Females: female stress-derived odor perceived by women.
Text: as §1, §2, §3, §4
A separate panel of 24 subjects (12 males and 12 females) tested samples of female stress-derived axillary odor with potential cross-adapting agents, some of which were not included in Example 1 above. Some of the subjects assessing the effectiveness of cross-adaptation of male stress-derived axillary odor were also used in the experiment with female secretions. However, these two experiments were treated as independent events. All panel members were screened for adequate use of magnitude estimation and further trained in its use during two to three training sessions. […]

Where [3] appears, read: listed as E-isomer 3-methyl-2-pentenoic acid ethyl ester.
Note: key: best: Best = Superior Cross-Adaptation; good: Good = Adequate Cross-Adaptation; poor: Poor = Ineffective Cross-Adaptation.

For the molecule `CCCCCC(C)=CC(=O)OCC` (single isomer, unassigned) [E-, Z-isomers (3:1) of 3-methyl-2-octenoic acid ethyl esters, 3-methyl-2-octenoic acid ethyl esters], in assay [1], the “Magnitude of Reduction of Intensity of Male Stress-Derived Odor (MSDO), Males” value (from here on “Magnitude of Reduction … (MSDO), Males”) is “best” and the “Magnitude of Reduction of Intensity of Male Stress-Derived Odor (MSDO), Females” value (“Magnitude of Reduction … (MSDO), Females” for short) was “best”. Also, in assay [2], the “Magnitude of Reduction of Intensity of Female Stress-Derived Odor (FSDO), Males” value (shortened to “Magnitude of Reduction … (FSDO), Males”) is reported as “best” and the “Magnitude of Reduction of Intensity of Female Stress-Derived Odor (FSDO), Females” value (“Magnitude of Reduction … (FSDO), Females” below) is listed as “best”.
`CCOC(=O)C=C(C)CC` (single isomer, unassigned) [E-isomer of 3-methyl-2-pentenoic acid ethyl ester, 3-methyl-2-pentenoic acid ethyl ester]: in assay [1], the “Magnitude of Reduction … (MSDO), Males” value is on record as “good” and the “Magnitude of Reduction … (MSDO), Females” value was “good”. In assay [1] (setting [3]), the “Magnitude of Reduction … (MSDO), Males” value is listed as “good” and the “Magnitude of Reduction … (MSDO), Females” value is listed as “good”. Moreover, in assay [2], the “Magnitude of Reduction … (FSDO), Males” value was “poor” and the “Magnitude of Reduction … (FSDO), Females” value is “poor”.
`CCOC(=O)C=C(C)CC` (single isomer, unassigned) [Z-isomer of 3-methyl-2-pentenoic acid ethyl ester, 3-methyl-2-pentenoic acid ethyl ester]: in assay [1], the “Magnitude of Reduction … (MSDO), Males” value is listed as “best” and the “Magnitude of Reduction … (MSDO), Females” value is given as “poor”. Moreover, in assay [1] (listed as Z-isomer 3-methyl-2-pentenoic acid ethyl ester), the “Magnitude of Reduction … (MSDO), Males” value is “best”. Further, in assay [2], the “Magnitude of Reduction … (FSDO), Males” value was “poor” and the “Magnitude of Reduction … (FSDO), Females” value is on record as “poor”.
Turning to `CC(=O)OC1CCCCC1C(C)(C)C` (centres unmarked) [Agrumex, 2-tert-butyl cyclohexyl acetate], in assay [1], the “Magnitude of Reduction … (MSDO), Males” value was “good” and the “Magnitude of Reduction … (MSDO), Females” value is recorded as “poor”. Also, in assay [2], the “Magnitude of Reduction … (FSDO), Males” value was “poor” and the “Magnitude of Reduction … (FSDO), Females” value was “best”.
As to `COc1ccc(C=O)cc1` [Anisic Aldehyde, 4-methoxybenzaldehyde], in assay [2], the “Magnitude of Reduction … (FSDO), Males” value is “best” and the “Magnitude of Reduction … (FSDO), Females” value was “good”.
As to `Cc1ccc2c(c1)OCC(=O)CO2` [Calone 1951, 7-methyl-314-dihydro-2H-1,5-benzodioxepin-3-one], in assay [2], the “Magnitude of Reduction … (FSDO), Males” value is “good” and the “Magnitude of Reduction … (FSDO), Females” value is reported as “good”.
Consider `COC(C=C(C)CCC=C(C)C)OC` [Citrylal, Octa-2,6-dien; 1,1-dimethoxy-3-7-dimethyl], for which, in assay [1], the “Magnitude of Reduction … (MSDO), Males” value was “best” and the “Magnitude of Reduction … (MSDO), Females” value is listed as “good”.
Turning to `C/C=C/C(=O)OC(C)C1CCCCC1` (centres unmarked) [Datilat, Cyclohexyl methyl carbinol crotonate], in assay [1], the “Magnitude of Reduction … (MSDO), Males” value is recorded as “poor” and the “Magnitude of Reduction … (MSDO), Females” value is “poor”.
Consider `CCCCCC(C)=CC(=O)OCC` [E-isomer of 3-methyl-2-octenoic acid ethyl ester, 3-methyl-2-octenoic acid ethyl ester], for which, in assay [2], the “Magnitude of Reduction … (FSDO), Males” value is on record as “good” and the “Magnitude of Reduction … (FSDO), Females” value is “poor”.
Consider `CCOc1cc(C=O)ccc1O` [Ethyl Vanillin, 3-Ethoxy-4-hydroxybenzaldehyde], for which, in assay [2], the “Magnitude of Reduction … (FSDO), Males” value is given as “best” and the “Magnitude of Reduction … (FSDO), Females” value is given as “poor”.
For `COC(=O)c1c(C)cc(O)c(C)c1O` [Evernyl, methyl 2,4-dihydroxy-3,6-dimethylbenzoate], in assay [2], the “Magnitude of Reduction … (FSDO), Males” value is listed as “poor” and the “Magnitude of Reduction … (FSDO), Females” value is “good”.
Consider `O=C1CCCC=CCCCCCCCCCC1` [GLOBANONE ®, cyclohexadecen-5-one-1], for which, in assay [2], the “Magnitude of Reduction … (FSDO), Males” value is listed as “good” and the “Magnitude of Reduction … (FSDO), Females” value is on record as “poor”.
Taken in the same sequence, the figures for `CC(C=O)Cc1ccc(C(C)(C)C)cc1` (stereo not drawn) [Lilial, 4-(1,1-dimethylethyl)-alpha-methylbenzenepropanal] were “good” and “poor”.
For the molecule `CC(C)(O)CCCC1=CCC(C=O)CC1` (centres unmarked) [Lyral, 4-(4-hydroxy-4-methylpentyl)-3-cyclohexenE-1-carboxaldehyde], in assay [2], the “Magnitude of Reduction … (FSDO), Males” value is recorded as “good” and the “Magnitude of Reduction … (FSDO), Females” value is listed as “poor”.
As to `Cc1cccc(CC(C)(C)CO)c1` [MAJANTOL ®, 2,2-dimethyl-3-(methylphenyl)propanol], in assay [2], the “Magnitude of Reduction … (FSDO), Males” value is on record as “good” and the “Magnitude of Reduction … (FSDO), Females” value is listed as “poor”.
With `CC(C)C1CCC(C(C)O)CC1` (centres unmarked) [Mugetanol, 1-(4-isopropylcyclohexyl)ethanol], in assay [1], the “Magnitude of Reduction … (MSDO), Males” value is recorded as “good” and the “Magnitude of Reduction … (MSDO), Females” value was “poor”.
In the case of `CC(=O)c1oc2ccccc2c1C` [Nerolione, 1-(3-bethyl-2-benzofuranyl)-ethanone], in assay [1], the “Magnitude of Reduction … (MSDO), Males” value is reported as “good” and the “Magnitude of Reduction … (MSDO), Females” value is “poor”.
With `CCC(C)(O)CCCC(C)C` (centres unmarked) [Tetrahydro Linalool, 3,7-Dimethyloctan-3-ol], in assay [1], the “Magnitude of Reduction … (MSDO), Males” value is listed as “best” and the “Magnitude of Reduction … (MSDO), Females” value was “poor”.
As to `CC(O)C(C)CC1C(C)CCCC1(C)C` (centres unmarked) [Timbranol, Isomethyltetrahydroionol], in assay [1], the “Magnitude of Reduction … (MSDO), Males” value is on record as “poor” and the “Magnitude of Reduction … (MSDO), Females” value is “poor”.
In the case of `CC(=O)c1cc2c(cc1C)C(C)(C)C(C)CC2(C)C` (centres unmarked) [Tonalide, 7-Acetyl-1,1,3,4,4,6-hexamethyltetralin], in assay [1], the “Magnitude of Reduction … (MSDO), Males” value was “good” and the “Magnitude of Reduction … (MSDO), Females” value was “poor”.
Consider `CC=CC(=O)C1C(C)C=CCC1(C)C` (centres unmarked) [Δ-Damascone, 1-(2,6,6-trimethyl-3-cyclohexen-1-yl)-2-buten-1-one], for which, in assay [1], the “Magnitude of Reduction … (MSDO), Males” value was “best” and the “Magnitude of Reduction … (MSDO), Females” value is reported as “good”.
On to `CC(=O)C=CC1C(C)=CCCC1(C)C` (stereo not drawn) [α-ionone, 4-(2,2,6-trimethyl-2cyclohexen-1-yl)-3-buten-2-one], for which, in assay [2], the “Magnitude of Reduction … (FSDO), Males” value was “good” and the “Magnitude of Reduction … (FSDO), Females” value is “good”.
For alpha-n-methylionone [Isoraldeine 70], in assay [2], the “Magnitude of Reduction … (FSDO), Males” value was “best” and the “Magnitude of Reduction … (FSDO), Females” value is listed as “poor”.
On to isobornyl cyclohexanol, for which, in assay [1], the “Magnitude of Reduction … (MSDO), Males” value is reported as “good” and the “Magnitude of Reduction … (MSDO), Females” value is listed as “poor”.
